Measurements from paper PMC11462627, “SAL0114: a novel deuterated dextromethorphan-bupropion combination with improved antidepressant efficacy and safety profile” (Frontiers in Pharmacology, 2024).

Tests used:
NMDA receptor = details: read-out: Ki, NMDA receptor; 3H-MK801 competition, rat brain membranes, mean, n = 4
Method: Membrane preparation was performed as previously described ([Werling et al., 2007]). Briefly, the brains of male Sprague-Dawley rats were dissected for tissue collection. The tissue was then homogenized in ice-cold extraction solution and centrifuged at 40,000 × g for 10 min (minute). The supernatant was discarded, the precipitate was resuspended in extraction solution, and the above steps were repeated two times. Finally, the precipitate was resuspended in a 10-fold volume of resuspension solution and stored at −80°C. Protein concentration was determined using a PierceTM BCA Protein Assay Kit. The competitive binding of the compound and ^3H-MK801 to the NMDA receptor was evaluated utilizing the filtration binding method. This method involves washing unbound radioligands and subsequently quantifying the signal values of the radioligands bound to the NMDA receptor using a Microbeta instrument (catalog number: 2450, Perkin Elmer, Massachusetts, United States).

nAchR α3β4 = target: T1, nAchR α3β4 (Homo sapiens, UniProt P30926+P32297); experiment: nAchR α3β4 radioligand binding (125I-epibatidine, recombinant CHO-K1 cells); details: 125I-epibatidine competition, human recombinant CHO-K1 cells, mean, n = 2; read-out: Ki, α3β4 nicotinic acetylcholine receptors
T1 construct: host or cells: CHO-K1
Method: The experiments were carried out in the Eurofins Discovery laboratory, and the methods were referenced from previous studies with modifications ([Michelmore et al., 2002]; [Zaveri et al., 2010]). The competitive binding of the samples and ^125I-epibatidine to the nAchR α3β4 in human recombinant CHO-K1 cells was assessed using a radioligand binding method. The ability of the compound to competitively bind to nAchR α3β4 (Ki) was determined by detecting the signal value of the radioligand bound to the receptor.

[1] = target: T2, norepinephrine transporter (Homo sapiens, UniProt P23975); experiment: Norepinephrine transporter (NET) radioligand binding (3H-Nisoxetine); details: 3H-Nisoxetine competition, mean, n = 2; read-out: Ki, norepinephrine transporter
T2 construct: purchased PerkinElmer, Inc RBHNETM400UA
Method: The experiments were carried out in the Pharmaron laboratory, and the methods were referenced from previous studies with modifications ([Bylund and Toews, 1993]; [Galli et al., 1995]). Competitive binding of the compound and ^3H-Nisoxetine to NETs was assessed using a radioligand binding method. The ability of the compound to competitively bind to NET (Ki) was determined by detecting the signal value of the radioligand bound to the transporter using a Microbeta instrument (2450, Perkin Elmer, Massachusetts, United States).

[2] = Metabolic stability in liver microsomes; format: in vitro ADME, human
Method: All incubations were performed in duplicates. Verapamil was used as the positive control. After pre-warming the mixture for 5 min, reactions were initiated by the addition of NADPH (1 mM). Samples (30 μL) were taken at 0, 20, and 60 min, and the reaction was immediately terminated by adding 150 μL acetonitrile containing an analytical internal standard (IS). Samples were centrifuged at 4,000 rpm for 5 min in a centrifuge (5810R, Eppendorf, Germany), and the supernatant was analyzed by LC-MS/MS (Thermo Scientific TSQ Quantum Ultra, United States).
The in vivo clearance values (CLint = CLint, in vitro × (mg protein/g liver weight) × (g liver weight/kg body weight)) of humans were predicted by CLint, in vitro values using physiologically-based scaling factors, hepatic microsomal protein concentrations (48.8 mg protein/g liver), and liver weights (25.7 g/kg body weight). The in vivo hepatic clearance (CLH= (Q × CLint)/(Q + CLint)) was then calculated by using CLint and hepatic blood flow, Q (20.7 mL·min^−1·kg^−1 in humans).

[3] = Pharmacokinetics in male SD rat after oral administration; format: in vivo; details: DM or deDM, male SD rat, oral, 50 mg/kg, mean, n=3
Source text: (§1) Results expressed as mean, n=3 per group

[4] = Pharmacokinetics in beagle dog after oral administration; format: in vivo; details: deDM, 14 mg/kg, mean, n=3
Source text: as §1

T2 sequence (P23975 whole entry): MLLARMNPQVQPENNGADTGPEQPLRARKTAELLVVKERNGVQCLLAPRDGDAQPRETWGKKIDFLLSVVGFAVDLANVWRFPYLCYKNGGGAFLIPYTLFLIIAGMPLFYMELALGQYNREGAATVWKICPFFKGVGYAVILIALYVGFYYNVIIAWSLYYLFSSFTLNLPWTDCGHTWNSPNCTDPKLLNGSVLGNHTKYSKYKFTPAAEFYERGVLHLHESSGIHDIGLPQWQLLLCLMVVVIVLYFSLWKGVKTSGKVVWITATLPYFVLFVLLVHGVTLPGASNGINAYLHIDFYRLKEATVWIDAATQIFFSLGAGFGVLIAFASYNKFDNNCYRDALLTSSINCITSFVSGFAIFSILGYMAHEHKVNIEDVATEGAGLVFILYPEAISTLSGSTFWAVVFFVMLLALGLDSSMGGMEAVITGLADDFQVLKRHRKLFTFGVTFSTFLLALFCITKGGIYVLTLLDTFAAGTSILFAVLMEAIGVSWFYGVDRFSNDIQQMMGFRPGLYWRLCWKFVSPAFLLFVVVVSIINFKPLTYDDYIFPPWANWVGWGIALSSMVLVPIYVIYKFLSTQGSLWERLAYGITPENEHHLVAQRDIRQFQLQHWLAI
T1 sequence (P32297 32-505): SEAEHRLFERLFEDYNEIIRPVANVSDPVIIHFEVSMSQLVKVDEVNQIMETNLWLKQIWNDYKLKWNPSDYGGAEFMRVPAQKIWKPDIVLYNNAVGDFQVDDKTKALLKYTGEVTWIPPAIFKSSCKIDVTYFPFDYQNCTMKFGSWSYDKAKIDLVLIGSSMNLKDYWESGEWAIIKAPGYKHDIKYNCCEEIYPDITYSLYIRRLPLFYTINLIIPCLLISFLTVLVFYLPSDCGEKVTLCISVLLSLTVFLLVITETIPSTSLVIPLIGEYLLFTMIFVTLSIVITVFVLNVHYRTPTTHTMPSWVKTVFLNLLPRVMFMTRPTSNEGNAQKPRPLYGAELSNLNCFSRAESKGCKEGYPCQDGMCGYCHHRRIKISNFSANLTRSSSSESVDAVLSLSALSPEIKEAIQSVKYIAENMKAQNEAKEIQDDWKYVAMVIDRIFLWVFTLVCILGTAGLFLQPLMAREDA
T1 sequence (P30926 22-498): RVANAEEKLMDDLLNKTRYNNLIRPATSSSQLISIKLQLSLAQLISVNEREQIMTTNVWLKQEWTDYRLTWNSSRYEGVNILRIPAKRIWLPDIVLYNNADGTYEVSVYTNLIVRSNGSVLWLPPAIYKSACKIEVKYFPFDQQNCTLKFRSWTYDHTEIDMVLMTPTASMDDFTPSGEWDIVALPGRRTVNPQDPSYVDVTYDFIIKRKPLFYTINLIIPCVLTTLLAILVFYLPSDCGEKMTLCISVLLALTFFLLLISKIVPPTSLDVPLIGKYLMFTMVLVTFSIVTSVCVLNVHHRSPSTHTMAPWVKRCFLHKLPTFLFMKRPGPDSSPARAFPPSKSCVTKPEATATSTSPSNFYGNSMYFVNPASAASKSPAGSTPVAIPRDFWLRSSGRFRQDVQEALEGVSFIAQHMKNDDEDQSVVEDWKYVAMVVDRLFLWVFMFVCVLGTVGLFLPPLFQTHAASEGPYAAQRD

## deuterated dextromethorphan [deDM]
NMDA receptor
  Ki: 1.9 µM
nAchR α3β4
  Ki: 15.8 µM
[1]
  Ki: 17.1 µM
[2]; 1 μM, 0.5 mg/mL human liver microsomes, NADPH 1 mM, 37°C, mean, n = 2
  T1/2: 2.265 h
[2]; human liver microsomes, calculated from t1/2, mean, n = 2
  CLint, in vitro: 12.8 mL/min/kg
[2]; in vivo hepatic clearance predicted from CLint and hepatic blood flow 20.7 mL/min/kg, human
  CLH: 7.9 mL/min/kg
[3]
  AUC0-last: 374 ng·h/mL
  Cmax: 84 ng/mL
[4]; female beagle dog
  AUC0-last (♀): 153 ng·h/mL
  Cmax (♀): 60 ng/mL
[4]; male beagle dog
  AUC0-last (♂): 383 ng·h/mL
  Cmax (♂): 157 ng/mL
